Here are results for 11 compounds from US10821100B2, “Triazolone compounds as mPGES-1 inhibitors” (Glenmark Pharmaceuticals S.A., priority 2012, dated 2020).

This experiment addresses T1, Recombinant human mPGES-1 (Homo sapiens, UniProt O14684).
T1 construct: made in house; host or cells: CHO cells (crude microsomal fractions)
T1 sequence (O14684 1-152): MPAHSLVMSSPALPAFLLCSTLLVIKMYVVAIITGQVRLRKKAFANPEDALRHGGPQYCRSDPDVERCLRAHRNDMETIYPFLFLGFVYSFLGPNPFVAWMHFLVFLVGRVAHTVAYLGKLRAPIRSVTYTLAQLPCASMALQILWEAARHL
The experiment in a line: In-vitro screening of mPGES-1 inhibitors (inhibition of PGE2 formation from PGH2, HTRF detection). It is filed as biochemical. Particulars: mPGES-1 enzyme; for inhibition at 1 µM: 1 μM test compound, read-out: Percentage inhibition at 1 μM; for inhibition at 10 µM: 10 μM test compound, read-out: Percentage inhibition at 10 μM; for IC50: class symbols. The source says:
In-Vitro Protocol for Screening of mPGES-1 Inhibitors: mPGES-1 (Microsomal prostaglandin E synthase-1) is a microsomal enzyme that converts endoperoxide substrate PGH2 (prostaglandin H2) to product PGE2 (prostaglandin E2) by isomerization in the presence of reduced glutathione (GSH). mPGES-1 inhibitors were screened by assessing their ability to inhibit formation of PGE2 from PGH2 in the presence of mPGES-1 using an anti-PGE2 antibody based detection method. Recombinant human mPGES-1 was generated in-house by expression in CHO cells (Ouellet M et al. (2002), Protein Expression and Purification 26: 489-495). The assay was set up using crude microsomal fractions at a protein concentration of 40-60 μg/mL. Test compounds were prepared in 100% dimethyl sulfoxide (DMSO) to obtain 20 mM stock solution and then diluted using assay buffer comprising 0.1 M Potassium phosphate buffer with 2 mM EDTA. The final concentration of DMSO in the reaction was 0.5% (v/v). Negative controls were comprised of all assay reagents except the enzyme. Positive controls were comprised of the enzyme reaction in the absence of any inhibitor. Test compounds were incubated for 10 minutes in assay buffer containing 2.5 mM GSH and mPGES-1 enzyme followed by addition of PGH2 at a concentration of 15 μM for 1 minute. The reaction was stopped by addition of Stannous chloride (11 mg/ml) and PGE2 levels were measured ([…] et al. (2005), Journal of Biomolecular Screening 10(6) 599-605; Goedken R E et al. (2008), Journal of Biomolecular Screening 13 (7): 619-625) by HTRF kit (CisBio)). Inhibition of mPGES-1 enzyme activity was measured using the percent of reaction occurring in the positive control. Concentration response curves were plotted using percent inhibition of maximum enzyme reaction. The IC50 value was calculated from the concentration response curve by nonlinear regression analysis using GraphPad PRISM software.

Some results are limits rather than exact numbers.

`[O-][S+]1NC(c2c(F)cccc2Cl)=NN1c1ccc(Br)cc1` (stereo not shown) [Example-1, 2-(4-Bromophenyl)-4-(2-chloro-6-fluorophenyl)-2,5-dihydro-1,2,3,5-thiatriazole-1-oxide]: where the note is “crude microsomal fractions”, the inhibition at 1 µM stood at 9.32% and the inhibition at 10 µM is 68.2%.
The corresponding values for `O=c1[nH]c(-c2c(F)cccc2Cl)nn1-c1ccc(-c2ccc(C(F)(F)F)nc2)cc1` [Example-2, 5-(2-Chloro-6-fluorophenyl)-2-{4-[6-(trifluoromethyl)pyridin-3-yl]phenyl}-2,4-dihydro-3H-1,2,4-triazol-3-one] are 18% and 19%.
Consider `O=c1[nH]c(-c2c(F)cccc2Cl)nn1-c1ccc(C#Cc2ccccc2C(F)(F)F)cc1` [Example-3, 5-(2-Chloro-6-fluorophenyl)-2-(4-{[2-(trifluoromethyl)phenyl]ethynyl}phenyl)-2,4-dihydro-3H-1,2,4-triazol-3-one], for which the IC50 is below 50 nM. Further, the inhibition at 1 µM (crude microsomal fractions) amounted to 88.9%. The inhibition at 3 µM (3 μM test compound, crude microsomal fractions, read-out: Percentage inhibition at 3 μM) came out at 96.8%.
In the case of `Cc1csc(-c2ccc(-n3nc(-c4c(F)cccc4-c4cc(C)cs4)[nH]c3=O)cc2)c1` [Example-4, 5-[2-Fluoro-6-(4-methylthiophen-2-yl)phenyl]-2-[4-(4-methylthiophen-2-yl)phenyl]-2,4-dihydro-3H-1,2,4-triazol-3-one], for the setting “crude microsomal fractions”, the inhibition at 1 µM was 46.4% and the inhibition at 10 µM was determined as 69.7%.
`O=c1[nH]c(-c2c(F)cccc2Cl)nn1-c1ccc(C#Cc2ccc(F)nc2)cc1` [Example-5, 5-(2-Chloro-6-fluorophenyl)-2-{4-[(6-fluoropyridin-3-yl)ethynyl]phenyl}-2,4-dihydro-3H-1,2,4-triazol-3-one]: the IC50 was below 50 nM. For the same compound, where the note is “crude microsomal fractions”, the inhibition at 1 µM is 91.8% and the inhibition at 10 µM was 86.2%.
As to `O=c1[nH]c(-c2c(F)cccc2Cl)nn1-c1ccc(C#Cc2ccc(Cl)cc2F)cc1` [Example-6, 5-(2-Chloro-6-fluorophenyl)-2-{4-[(4-chloro-2-fluorophenyl)ethynyl]phenyl}-2,4-dihydro-3H-1,2,4-triazol-3-one], the IC50 is below 50 nM. For the same compound, where the note is “crude microsomal fractions”, the inhibition at 1 µM came out at 83.9% and the inhibition at 10 µM was 87.7%.
For `O=c1[nH]c(-c2c(F)cccc2Cl)nn1-c1ccc(C#Cc2ccc(C(F)(F)F)cc2Cl)cc1` [Example-7, 5-(2-Chloro-6-fluorophenyl)-2-(4-{[2-chloro-4-(trifluoromethyl)phenyl]ethynyl}phenyl)-2,4-dihydro-3H-1,2,4-triazol-3-one], in that order: below 50 nM, 89.1% and 95.2%.
The corresponding values for `O=c1[nH]c(-c2c(F)cccc2Cl)nn1-c1ccc(-c2cccc(OC(F)(F)F)c2)cc1` [Example-8, 5-(2-Chloro-6-fluorophenyl)-2-[3′-(trifluoromethoxy)biphenyl-4-yl]-2,4-dihydro-3H-1,2,4-triazol-3-one] are 50 to 100 nM, 84.9% and 87.2%.
As for `O=c1[nH]c(-c2c(F)cccc2Cl)nn1-c1ccc(Nc2cccc(C(F)(F)F)c2)cc1` [Example-9, 5-(2-Chloro-6-fluorophenyl)-2-(4-{[3-(trifluoromethyl)phenyl]amino}phenyl)-2,4-dihydro-3H-1,2,4-triazol-3-one], for the setting “crude microsomal fractions”, the inhibition at 1 µM was 1.53% and the inhibition at 10 µM was 23.2%.
For `O=c1[nH]c(-c2c(F)cccc2Cl)nn1-c1ccc(C#Cc2cc(Cl)ccc2Cl)cc1` [Example-10, 5-(2-Chloro-6-fluorophenyl)-2-{4-[(2,5-dichlorophenyl)ethynyl]phenyl}-2,4-dihydro-3H-1,2,4-triazol-3-one], the IC50 is below 50 nM. For the same compound, under “crude microsomal fractions”, the inhibition at 1 µM is 84.9% and the inhibition at 10 µM was found to be 91.2%.
Consider `COCCCNc1nc(-c2c(F)cccc2Cl)nn1-c1ccc(Br)cc1` [Example-11, 1-(4-Bromophenyl)-3-(2-chloro-6-fluorophenyl)-N-(3-methoxypropyl)-1H-1,2,4-triazol-5-amine], for which, for the setting “crude microsomal fractions”, the inhibition at 1 µM worked out at 2.34% and the inhibition at 10 µM was determined as 71.7%.
